Measured values as given in PubChem BioAssay (NCI).
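Five compound concentrations were applied to cells in 96-well plates for 48 hours; endpoints were derived by simple linear interpolation of the resulting dose-response curve. Here, GI50 denotes the concentration required for 50% inhibition of growth. Definition used: TGI = concentration required for complete inhibition of growth.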

Columns and labels:
Experiment in all cases: NCI tumour cell line growth inhibition, 48 h
OVCAR-3 ovarian = system: OVCAR-3 ovarian
NCI-H226 lung = system: NCI-H226 lung
OVCAR-8 ovarian = system: OVCAR-8 ovarian
OVCAR-5 ovarian = system: OVCAR-5 ovarian
UACC-257 melanoma = system: UACC-257 melanoma
KM12 colon = system: KM12 colon
CAKI-1 renal = system: CAKI-1 renal
SR leukemia = system: SR leukemia
MCF7 breast = system: MCF7 breast
DU-145 prostate = system: DU-145 prostate

Compound	TGI (OVCAR-3 ovarian) [µM]	TGI (NCI-H226 lung) [µM]	TGI (OVCAR-8 ovarian) [µM]	TGI (OVCAR-5 ovarian) [µM]	TGI (UACC-257 melanoma) [µM]	TGI (KM12 colon) [µM]	TGI (CAKI-1 renal) [µM]	TGI (SR leukemia) [µM]	TGI (MCF7 breast) [µM]	TGI (DU-145 prostate) [µM]	GI50 (DU-145 prostate) [µM]
Cc1c[n+]2c3ccccc3c3ccccc3c2s1	12.9	3.89	28.8	12.8	18.3	9.4	31.5	32.3	–	–	–
CCc1c2c(cc3c1CC1(C3)Cc3cc4c(c(C(=O)OC)c3C1)CCCC4)CCCC2 (stereo not drawn)	> 100	> 100	> 100	> 100	> 100	> 100	–	> 100	> 100	–	–
N#CC1(C#N)NC(c2ccccc2)C(C#N)(C#N)NC1c1ccccc1 (stereo not drawn)	> 100	> 100	> 100	> 100	> 100	> 100	> 100	–	> 100	> 100	–
OC1c2ccccc2CCC1CN1CCN(CCOC(c2ccc(F)cc2)c2ccc(F)cc2)CC1 (stereo not drawn)	42.6	28.3	28.5	–	35.3	> 100	> 100	> 100	30.8	61.4	–
COc1cc(C2c3cc4c(cc3[C@@H](Nc3cccc(CO)c3)C3COC(=O)[C@H]23)OCO4)cc(OC)c1O (stereo partly drawn)	13.4	1.7	16.2	11.5	5.04	6.67	1.91	–	26.3	–	–
O=P1(c2ccccc2)c2ccccc2-c2ccccc21	> 100	> 100	> 100	–	> 100	> 100	> 100	–	> 100	> 100	–
C=CC(O)(CBr)CCC(Br)C(=C)C (stereo not drawn)	> 10	> 10	> 10	> 10	> 10	> 10	> 10	–	> 10	> 10	–
COc1ccc(C2=NN(c3ccccc3)C[N+](c3ccc(C)cc3)=N2)cc1	47.2	> 100	> 100	79.8	> 100	> 10	–	> 100	–	–	–
COc1ccc(/C=C2/CSCC3=C2NC(=S)NC3c2ccc(OC)c(OC)c2OC)c(OC)c1OC (stereo not drawn)	> 100	99.3	> 100	57.5	67.7	34.1	92.2	–	> 100	> 100	–
S=C(NCCc1ccccn1)N/N=C/c1ccccn1	> 100	0.986	> 100	> 100	1.77	> 100	< 0.01	< 0.0182	–	> 100	–
COc1ccc(/C=C/C(=O)/C=C/c2ccc(OC)cc2OC)c(OC)c1	7.37	37.6	41.1	36.5	39.9	> 100	23.4	13.1	–	35.3	–
Cc1ccc(C2(c3ccc(Cl)cc3)c3ccccc3C3=NCCN32)cc1 (stereo not drawn)	24.9	35.6	29.4	26	20.7	22.8	37.9	–	20.5	26.1	–
CSCC[C@@H]1C(=O)N(C)[C@H](C(C)(C)C)N1C(=O)c1ccccc1	> 100	> 100	> 100	> 100	> 100	> 100	–	–	> 100	–	–
CC(C)C(=O)N1Cc2cc(Cl)cc(Cl)c2OC(=O)c2ccccc21	60.8	58.7	> 100	90	32.8	> 100	64	–	–	–	–
CCOC(=O)CC(c1ccccc1)C(C)(C(=O)OCC)C(=O)OCC (stereo not drawn)	–	> 100	> 100	> 100	> 100	> 100	> 100	> 100	> 100	> 100	–
O=C(Nc1ccc(Cl)cc1C(F)(F)F)C(=O)C1CCCS1(=O)=O (stereo not drawn)	> 100	> 100	> 100	> 100	> 100	> 100	> 100	> 100	–	–	–
CCCCCCCCCCCCOP(=O)(O)OP(=O)(O)OCC1OC(n2ccc(N)nc2=O)CC1O (stereo not drawn)	> 100	> 100	> 100	> 100	> 100	> 100	> 100	–	> 100	–	–
N#CC(N=Nc1ccccc1C(=O)O)C(N)=O (stereo not drawn)	> 100	> 100	–	> 100	> 100	> 100	> 100	> 100	–	> 100	–
COC(=O)c1cc(C(=O)OC)c(CC(=O)C(=O)NC2C3CC4CC(C3)CC2C4)nc1CC(=O)C(=O)NC1C2CC3CC(C2)CC1C3 (stereo not drawn)	> 100	> 100	> 100	> 100	> 100	> 100	> 100	> 100	–	–	–
COCCN(CCNC(=O)c1cccc2c(N)c3cccc(C)c3nc12)CCOC	15.2	6.15	19	15.6	19.9	6.93	4.49	–	23.3	9.64	–
C1CSCCSCCCSC2CCCCC2SC1 (stereo not drawn)	> 100	–	> 100	> 100	> 100	> 100	–	> 100	> 100	> 100	–
COc1cc(C)c(/C=C2/N=C(c3ccccc3)OC2=O)c([N+](=O)[O-])c1OC	> 100	> 100	> 100	> 100	> 100	> 100	> 100	–	> 100	> 100	–
O=C(CN(C(=O)OC12CC3CC(CC(C3)C1)C2)C(=O)OC12CC3CC(CC(C3)C1)C2)Oc1ccc([N+](=O)[O-])cc1	> 100	> 100	> 100	> 100	> 100	> 100	> 100	> 100	> 100	–	–
Cc1c(C)c(C)c(Cn2[nH]c(=O)n(C)c2=O)c(C)c1C	–	> 100	> 100	–	> 100	> 100	> 100	–	> 100	> 100	–

Compound	TGI (OVCAR-3 ovarian) [µM]	TGI (NCI-H226 lung) [µM]	TGI (OVCAR-8 ovarian) [µM]	TGI (OVCAR-5 ovarian) [µM]	TGI (UACC-257 melanoma) [µM]	TGI (KM12 colon) [µM]	TGI (CAKI-1 renal) [µM]	TGI (SR leukemia) [µM]	TGI (MCF7 breast) [µM]	TGI (DU-145 prostate) [µM]	GI50 (DU-145 prostate) [µM]
CCC(C)C(N)C(=O)NC(CC(N)=O)C(=O)NC(CC(C)C)C(=O)NC(CCCCN)C(=O)NC(C)C(=O)NC(CC(C)C)C(=O)NC(C)C(=O)NC(C)C(=O)NC(CC(C)C)C(=O)NC(C)C(=O)NC(CCCCN)C(=O)NC(CCCCN)C(=O)NC(C(=O)NC(CC(C)C)C(N)=O)C(C)CC (stereo not drawn)	22.6	29	34.3	28	19.1	29.5	22.5	46.1	–	–	–
C=CCNC(=S)N1CC(C)C(=O)Nc2cc(Cl)ccc21 (stereo not drawn)	–	> 100	> 100	> 100	> 100	> 100	> 100	> 100	–	–	–
NCCSc1cc(O)c2c(c1N)C(=O)c1ccccc1C2=O	> 100	–	> 100	> 100	–	> 100	> 100	73.4	–	–	–
Nc1ccc2[nH]c(-c3cccc(C(F)(F)F)c3)cc(=O)c2c1	–	–	> 100	> 100	> 100	> 100	> 100	97.8	> 100	> 100	43.6
Cc1[nH]c(=O)[nH]c(=O)c1/C=C/C(=O)O (tested in a mixture with another compound)	> 625	> 625	> 568	> 625	> 625	> 625	> 625	–	> 625	–	–
C=CCN1/C(=C(\C#N)c2nc3ccccc3[nH]2)Sc2c1nc[nH]c2=O	> 100	–	> 100	> 100	> 100	> 100	> 100	> 100	–	–	–
N#Cc1ccc(Cc2ccccn2)cc1Cl	–	> 100	> 100	> 100	> 100	> 100	> 100	> 100	–	–	–
CC(=O)Oc1cc(S(=O)(=O)Nc2n[nH]c(Nc3ccc(C)cc3)n2)c(S)cc1Cl	> 100	–	> 100	> 100	> 100	> 100	> 100	> 100	–	> 100	–
CC(CCC[C@H](C)CO)[C@H]1[C@@H](O)C(O)C2[C@@H]3C[C@@H](O)C4(O)C[C@@H](O)CC[C@]4(C)C3CC[C@@]21C (stereo partly drawn)	> 100	> 100	> 100	–	> 100	> 100	> 100	> 100	–	–	–
CNC(=O)NCNC(=O)NC	> 100	–	> 100	> 100	> 100	> 100	> 100	–	–	–	–
CCCCn1c(CSc2ccc(Cl)cc2)c(C(=O)OCC)c2cc(OC)c(Br)cc21	> 100	> 100	> 100	> 100	> 100	> 100	75.9	> 100	–	> 100	–
CC(=O)OC(CC1(C)C(C)CCC23COC(=O)C2=CCCC31)c1ccoc1 (stereo not drawn)	46.1	44.1	54.2	67.4	72.5	67.4	–	–	–	–	–
COC(=O)C1CCC(=O)N1C(c1cc(OC)c(OC)c(OC)c1)c1cc(OC)c(OC)c(OC)c1 (stereo not drawn)	> 100	–	> 100	> 100	> 100	> 100	–	> 100	> 100	> 100	–
CCOC(=O)CC1COc2ccc3c(c21)OCO3 (stereo not drawn)	> 100	> 100	> 100	> 100	> 100	> 100	–	> 100	–	–	–
CC1(c2sccc2Cl)CC(c2sccc2Cl)=C(C#N)C(=C(C#N)C#N)N1 (stereo not drawn)	29.8	–	39	41.7	39.2	46	36.1	–	48.5	31.2	–
COc1cc(C2C3=C(COC3=O)Oc3cc4c(cc32)OCO4)ccc1O (stereo not drawn)	0.471	> 100	29.5	> 100	> 100	> 100	0.438	–	> 100	> 100	–
CCOC(=O)C(=O)C=P(c1ccccc1)(c1ccccc1)c1ccccc1	> 100	> 100	> 100	> 100	> 100	> 100	> 100	> 100	–	–	–
COC(=O)C1CCC(=S)N1C(=O)OCc1ccccc1 (stereo not drawn)	> 100	–	> 100	> 100	> 100	> 100	> 100	> 100	> 100	> 100	–
CC(CC(N)C(=O)O)C(=O)O (stereo not drawn)	> 100	> 100	> 100	> 100	> 100	> 100	> 100	> 100	–	> 100	–
COC(=O)c1c(C(=O)OC)c2ccccn2c1-c1cc(OC)c(Br)c(=O)o1	> 100	> 100	> 100	> 100	> 100	> 100	–	> 100	–	> 100	–
COC(=O)C1CCN(C(=O)OC(C)(C)C)CC1	> 100	–	> 100	> 100	> 100	> 100	> 100	> 100	> 100	> 100	–
Clc1cccc(-c2sc(-c3ccsc3)cc2Cc2ccsc2)c1	–	–	> 10	–	> 10	> 10	> 10	> 10	> 10	> 10	–
COc1cc2c(c(OC)c1OC)-c1ccc(SC)c(=O)cc1C(CC(=O)Oc1cccc([N+](=O)[O-])c1)C2 (stereo not drawn)	0.94	3.51	10.4	> 100	> 100	5.4	> 100	–	–	–	–
COc1cc2c3cc1Oc1c(O)c(OC)cc4c1C(Cc1ccc(O)c(c1)Oc1ccc(cc1)CC3N(C)CC2)N(C)CC4 (stereo not drawn)	30.5	38.3	28.4	38.4	33.4	23.6	32.4	–	–	–	–
